How the values were obtained:
Assay in all cases: AKT enzyme assay (substrate phosphorylation, SPA)
Type in all cases: biochemical
AKT3 = biological target: T1, AKT3 (Homo sapiens, UniProt Q9Y243); conditions: 10 nM activated AKT enzyme, 4 uM ATP, 8 uM peptide, 40 minutes at room temperature; read-out: IC50 value against AKT3
T1 construct: His-tagged AKT3 (aa 135-479) are isolated and purified in a similar fashion; His; made in house; host or cells: insect cells (by 'similar fashion' to AKT1)
Method: (§1) Compounds of the present invention are tested for AKT 1, 2, and 3 protein serine kinase inhibitory activity in substrate phosphorylation assays. This assay examines the ability of small molecule organic compounds to inhibit the serine phosphorylation of a peptide substrate. The substrate phosphorylation assays use the catalytic domains of AKT 1, 2, or 3. AKT 1, 2 and 3 are also commercially available from Upstate USA, Inc. The method measures the ability of the isolated enzyme to catalyze the transfer of the gamma-phosphate from ATP onto the serine residue of a biotinylated synthetic peptide SEQ. ID NO: 5 (Biotin-ahx-[…]-amide). Substrate phosphorylation is detected by the following procedure:
(§2) Assays are performed in 384 well U-bottom white plates. […] ATP/well, 1 mM CHAPS, 2 mM DTT, and 1 ul of test compound in 100% DMSO. The reaction is stopped by the addition of 50 ul SPA bead mix (Dulbecco's PBS without Mg^2+ and Ca^2+, 0.1% Triton X-100, 5 mM EDTA, 50 uM ATP, 2.5 mg/ml Streptavidin-coated SPA beads.) The plate is sealed, the beads are allowed to settle overnight, and then the plate is counted in a Packard Topcount Microplate Scintillation Counter (Packard Instrument Co., Meriden, Conn.).
(§3) The data for dose responses are plotted as % Control calculated with the data reduction formula 100*(U1−C2)/(C1−C2) versus concentration of compound where U is the unknown value, C1 is the average control value obtained for DMSO, and C2 is the average control value obtained for 0.1M EDTA. Data are fitted to the curve described by: y=((Vmax*x)/(K+x)) where Vmax is the upper asymptote and K is the IC50.

AKT2 = biological target: T2, AKT2 (Homo sapiens, UniProt P31751); conditions: 10 nM activated AKT enzyme, 4 uM ATP, 8 uM peptide, 40 minutes at room temperature; read-out: IC50 value against AKT2
T2 construct: His-tagged AKT2 (aa 138-481) and His-tagged AKT3 (aa 135-479) are isolated; His; made in house; host or cells: insect cells (by 'similar fashion' to AKT1)
Method: as §1, §2, §3

AKT1 = biological target: T3, AKT1 (Homo sapiens, UniProt P31749); conditions: 10 nM activated AKT enzyme, 4 uM ATP, 8 uM peptide, 40 minutes at room temperature; read-out: IC50 value against AKT1
T3 construct: Insect cells expressing His-tagged AKT1 (aa 136-480) are lysed; His; made in house; host or cells: insect cells
Method: Cell debris are removed by centrifuging at 28,000×g for 30 minutes. The supernatant is filtered through a […] filter then loaded onto a nickel-chelating column pre-equilibrated with lysis buffer. The column is washed with 5 column volumes (CV) of lysis buffer then with 5 CV of 20% buffer B, where buffer B is 25 mM HEPES, 100 mM NaCl, 300 mM imidazole; pH 7.5. […] The sample is then chromatographed over a Q-Sepharose HP column pre-equilibrated with buffer C. The column is washed with 5 CV of buffer C then step eluted with 5 CV 10% D, 5 CV 20% D, 5 CV 30% D, 5 CV 50% D and 5 CV of 100% D; where buffer D is 25 mM HEPES, 1000 mM NaCl; pH 7.5. […] The protein is pooled, concentrated and frozen at −80 C.
as §1, §2, §3

T3 sequence (P31749 136-480): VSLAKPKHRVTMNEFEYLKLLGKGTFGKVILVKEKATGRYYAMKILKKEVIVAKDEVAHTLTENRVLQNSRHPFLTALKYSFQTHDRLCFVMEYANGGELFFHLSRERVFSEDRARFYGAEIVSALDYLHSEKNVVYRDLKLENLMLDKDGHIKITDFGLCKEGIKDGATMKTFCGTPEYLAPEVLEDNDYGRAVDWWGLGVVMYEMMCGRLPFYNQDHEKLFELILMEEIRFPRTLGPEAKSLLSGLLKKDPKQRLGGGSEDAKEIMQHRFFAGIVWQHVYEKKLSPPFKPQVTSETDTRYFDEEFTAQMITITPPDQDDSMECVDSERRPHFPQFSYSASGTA
T2 sequence (P31751 138-481): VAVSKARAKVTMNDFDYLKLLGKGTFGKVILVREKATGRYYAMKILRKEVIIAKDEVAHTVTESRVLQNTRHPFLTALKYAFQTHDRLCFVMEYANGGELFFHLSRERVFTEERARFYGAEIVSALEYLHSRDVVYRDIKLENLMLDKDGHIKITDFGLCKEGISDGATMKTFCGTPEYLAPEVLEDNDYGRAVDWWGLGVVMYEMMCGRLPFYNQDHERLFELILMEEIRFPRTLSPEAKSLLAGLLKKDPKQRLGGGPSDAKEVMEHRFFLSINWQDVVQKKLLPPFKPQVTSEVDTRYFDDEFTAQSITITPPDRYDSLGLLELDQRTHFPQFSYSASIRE
T1 sequence (Q9Y243 135-479): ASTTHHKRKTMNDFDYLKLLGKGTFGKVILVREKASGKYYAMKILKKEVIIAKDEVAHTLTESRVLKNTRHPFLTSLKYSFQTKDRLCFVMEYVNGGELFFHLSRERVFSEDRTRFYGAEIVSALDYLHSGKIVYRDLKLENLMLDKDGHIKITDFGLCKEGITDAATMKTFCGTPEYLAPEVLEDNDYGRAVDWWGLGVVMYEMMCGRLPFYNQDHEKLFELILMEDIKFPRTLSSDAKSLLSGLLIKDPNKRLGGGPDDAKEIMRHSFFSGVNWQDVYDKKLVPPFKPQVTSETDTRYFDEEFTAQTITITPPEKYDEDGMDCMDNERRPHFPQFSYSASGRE

IC50 (AKT3) [nM]	IC50 (AKT2) [nM]	IC50 (AKT1) [nM]	SMILES
≤ 500	≤ 500	≤ 500	CCn1c(-c2nonc2N)nc2c(C#CC(C)(C)O)nc(OC(CN)c3cccc4c3OCO4)cc21 (single isomer, unassigned) [Example 93, 4-[6-{[2-amino-1-(1,3-benzodioxol-4-yl)ethyl]oxy}-2-(4-amino-1,2,5-oxadiazol-3-yl)-1-ethyl-1H-imidazo[4,5-c]pyridin-4-yl]-2-methyl-3-butyn-2-ol]
≤ 500	≤ 500	≤ 500	CCn1c(-c2nonc2N)nc2c(C#CC(C)(C)O)nc(OC(CN)C3CCCCC3)cc21 (single isomer, unassigned) [Example 123, 4-[6-[(2-amino-1-cyclohexylethyl)oxy]-2-(4-amino-1,2,5-oxadiazol-3-yl)-1-ethyl-1H-imidazo[4,5-c]pyridin-4-yl]-2-methyl-3-butyn-2-ol]
≤ 500	–	–	CCn1c(-c2nonc2N)nc2c(C#CC(C)(C)O)nc(OC(CN)c3ccccc3)cc21 (centres unmarked) [Example 77, 4-{2-(4-amino-1,2,5-oxadiazol-3-yl)-6-[(2-amino-1-phenylethyl)oxy]-1-ethyl-1H-imidazo[4,5-c]pyridin-4-yl}-2-methyl-3-butyn-2-ol]
≤ 500	≤ 500	≤ 500	CCn1c(-c2nonc2N)nc2c(C#CC(C)(C)O)nc(O[C@@H](c3ccccc3)[C@H]3CCCN3)cc21 [Example 117, 4-[2-(4-amino-1,2,5-oxadiazol-3-yl)-1-ethyl-6-([(S)-phenyl[(2R)-2-pyrrolidinyl]methyl]oxy)-1H-imidazo[4,5-c]pyridin-4-yl]-2-methyl-3-butyn-2-ol]
≤ 500	≤ 500	≤ 500	CCn1c(-c2nonc2N)nc2c(C#CC(C)(C)O)nc(OC(CN)c3ccccc3Cl)cc21 (centres unmarked) [Example 152, 4-[6-{[2-amino-1-(2-chlorophenyl)ethyl]oxy}-2-(4-amino-1,2,5-oxadiazol-3-yl)-1-ethyl-1H-imidazo[4,5-c]pyridin-4-yl]-2-methyl-3-butyn-2-ol]

Continued, molecule first:

SMILES	IC50 (AKT3) [nM]	IC50 (AKT2) [nM]	IC50 (AKT1) [nM]
CCn1c(-c2nonc2N)nc2c(C#CC(C)(C)O)nc(OC(CN)c3cccc4c3OCO4)cc21 (racemic) [Example 92, 4-[6-{[2-amino-1-(1,3-benzodioxol-4-yl)ethyl]oxy}-2-(4-amino-1,2,5-oxadiazol-3-yl)-1-ethyl-1H-imidazo[4,5-c]pyridin-4-yl]-2-methyl-3-butyn-2-ol]	≤ 500	≤ 500	≤ 500
CCn1c(-c2nonc2N)nc2c(C#CC(C)(C)O)nc(OC[C@H](N)Cc3ccccc3)cc21 [Example 43, 4-(2-(4-amino-1,2,5-oxadiazol-3-yl)-6-{[(2R)-2-amino-3-phenylpropyl]oxy}-1-ethyl-1H-imidazo[4,5-c]pyridin-4-yl)-2-methyl-3-butyn-2-ol]	≤ 500	–	≤ 500
CCn1c(-c2nonc2N)nc2c(C#CC(C)(C)O)nc(O[C@@H](CN)c3ccccc3)cc21 [Example 86, 4-(2-(4-amino-1,2,5-oxadiazol-3-yl)-6-{[(1R)-2-amino-1-phenylethyl]oxy}-1-ethyl-1H-imidazo[4,5-c]pyridin-4-yl)-2-methyl-3-butyn-2-ol]	≤ 500	–	–
CCn1c(-c2nonc2N)nc2c(C#CC(C)(C)O)nc(OC(CN)Cc3ccccc3)cc21 (centres unmarked) [Example 106, 4-(2-(4-amino-1,2,5-oxadiazol-3-yl)-6-{[2-amino-1-(phenylmethyl)ethyl]oxy}-1-ethyl-1H-imidazo[4,5-c]pyridin-4-yl)-2-methyl-3-butyn-2-ol]	≤ 500	≤ 500	≤ 500
CCn1c(-c2nonc2N)nc2c(C#CC(C)(C)O)nc(O[C@@H](CCN)c3ccccc3)cc21 [Example 108, 4-(2-(4-amino-1,2,5-oxadiazol-3-yl)-6-{[(1S)-3-amino-1-phenylpropyl]oxy}-1-ethyl-1H-imidazo[4,5-c]pyridin-4-yl)-2-methyl-3-butyn-2-ol]	≤ 500	–	–
CCn1c(-c2nonc2N)nc2c(C#CC(C)(C)O)nc(OC(CN)c3cccc(OC)c3)cc21 (centres unmarked) [Example 132, 4-[6-({2-amino-1-[3-(methyloxy)phenyl]ethyl}oxy)-2-(4-amino-1,2,5-oxadiazol-3-yl)-1-ethyl-1H-imidazo[4,5-c]pyridin-4-yl]-2-methyl-3-butyn-2-ol]	≤ 500	≤ 500	≤ 500
CCn1c(-c2nonc2N)nc2c(C#CC(C)(C)O)nc(OC[C@H](N)Cc3ccccc3Cl)cc21 [Example 143, 4-[6-{[(2R)-2-amino-3-(2-chlorophenyl)propyl]oxy}-2-(4-amino-1,2,5-oxadiazol-3-yl)-1-ethyl-1H-imidazo[4,5-c]pyridin-4-yl]-2-methyl-3-butyn-2-ol]	≤ 500	≤ 500	≤ 500
CCn1c(-c2nonc2N)nc2c(C#CC(C)(C)O)nc(OC(CN)c3cccc(Cl)c3)cc21 (centres unmarked) [Example 151, 4-[6-{[2-amino-1-(3-chlorophenyl)ethyl]oxy}-2-(4-amino-1,2,5-oxadiazol-3-yl)-1-ethyl-1H-imidazo[4,5-c]pyridin-4-yl]-2-methyl-3-butyn-2-ol]	≤ 500	≤ 500	≤ 500
